Activity calls are given as the source filed them. The rule behind the calls is not given here.
Test system: not listed separately
Assay: yeast lifespan-shortening chemical project counter-assay, dose-response inhibition of growth under permissive conditions (AID 850);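 note: growth read as optical density after one day of incubation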
Conditions: Saccharomyces cerevisiae growth inhibition, permissive control; measured here: maximum growth inhibition; at 0.195 µM; stronger effect = higher value
Compound `CC(=O)Oc1ccc(N2C(=O)C3C(C2=O)C2(C)C=CC3(C)O2)cc1` (stereo not given) has an inhibition of 3.93%.

Same assay, conditions: Saccharomyces cerevisiae growth inhibition, permissive control; measured here: maximum growth inhibition; at 1.563 µM; stronger effect = higher value
For `COc1ccc(C(=O)/C=C/Nc2ccc(C)cn2)cc1OC`, the inhibition was 14.8%.

Same assay, conditions: Saccharomyces cerevisiae growth inhibition, permissive control; measured here: maximum growth inhibition; at 3.125 µM; stronger effect = higher value
With `CCCOC(=O)c1ccc(Oc2cn[nH]c2-c2ccc(OCC)cc2O)cc1` the inhibition was 34.6%. `CC(=O)N1N=C(c2ccc(Cl)cc2)OC1(C)C` showed an inhibition of 41%. With `O=S(=O)(Nc1ccc(-c2csc(-c3ccccc3)n2)cc1)c1ccc(F)cc1` the inhibition was 34.3%. With `CS(=O)(=O)N1CCN(C(=O)c2ccccc2F)CC1` the inhibition was 34.8%.

Same assay, conditions: Saccharomyces cerevisiae growth inhibition, permissive control; measured here: maximum growth inhibition; at 12.5 µM; stronger effect = higher value
`Cc1ccc2nc(-c3ccc(NS(=O)(=O)c4ccc(F)c(F)c4)cc3)sc2c1` showed an inhibition of 39.1%. `COc1ccc2nc(NC(=S)N(C)C)sc2c1` showed an inhibition of 35%. `COc1ccc(-n2c(Cc3cccn3C)nnc2SCC(=O)N2CCCC2)cc1` gave an inhibition of 37.7%. With `Cn1c2ccccc2c(=O)n2c(=O)c3ccccc3cc12` the inhibition was 30.2%. In the case of `Cc1onc(-c2ccccc2)c1C(=O)NC(=S)NNC(=O)c1ccc(O)cc1O`, the inhibition is reported as 44.7%. For `N/C(=N\OC(=O)c1ccc(Cl)cc1Cl)c1ccccc1`, the inhibition was 32.3%.

Same assay, conditions: Saccharomyces cerevisiae growth inhibition, permissive control; measured here: maximum growth inhibition; at 25 µM; stronger effect = higher value
Compound `Oc1c(N=Nc2ccccn2)ccc2ccccc12` has an inhibition of 98.2%. In the case of `O=C1c2ccccc2C(=O)C1c1ccc2ccccc2n1`, the inhibition is reported as 30.6%. Compound `Nc1cccc2nc3ccccc3cc12` has an inhibition of 38.6%. In the case of `O=C(Cc1cccs1)NNC(=S)NC(=O)c1ccccc1`, the inhibition is reported as 41%. In the case of `Cc1c2cc(O)c(=O)cc-2oc2cc(O)c(O)cc12`, the inhibition is reported as 39.9%. `N#CCSc1nc2ccccc2c2nc3ccccc3n12` gave an inhibition of 39.2%. In the case of `O=c1c2c([N+](=O)[O-])cc([N+](=O)[O-])cc2sn1-c1ccc(Br)cc1`, the inhibition is reported as 36.1%. Compound `O=C(c1c[nH]c(C(=O)C(Cl)(Cl)Cl)c1)c1ccccc1Cl` has an inhibition of 46.3%. With `OCCN(CCO)CC(O)COc1ccc(C23CC4CC(CC(C4)C2)C3)cc1` (stereo not given) the inhibition was 35.6%. Work on `Cc1cc(C)c2c(N=NN3CCCCC3)[nH]nc2n1` yielded an inhibition of 39.3%. In the case of `Oc1c(Cl)cc(Cl)cc1Sc1cc(Cl)cc(Cl)c1O`, the inhibition is reported as 40.3%. For `Cc1cc(C)c2c(N=NN(C)C)[nH]nc2n1`, the inhibition was 35.6%. `COc1ccc(N/N=C(\C#N)C(N)=O)cc1` gave an inhibition of 36.4%. `CCc1cc2c(cc(C(=O)O)n2C)s1` showed an inhibition of 48.3%.

Same assay, conditions: Saccharomyces cerevisiae growth inhibition, permissive control; measured here: maximum growth inhibition; at 50 µM; stronger effect = higher value
In the case of `O=[N+]([O-])c1ccc(Cl)c(S(=O)(=O)N2CCCCCC2)c1`, the inhibition is reported as 58.1%. Compound `Oc1cccc(C=NCc2ccccc2)c1O` has an inhibition of 98.8%. `CC(C)(Oc1ccc(Cl)cc1)C(=O)NC1=NN(c2ccccc2)C(=O)C1` gave an inhibition of 88.3%. Work on `Oc1c(CN2CCc3ccccc3C2)cc(Cl)c2cccnc12` yielded an inhibition of 101%. Work on `O=C(/C=C/c1ccccc1)c1cc(Br)ccc(=O)c1O` yielded an inhibition of 98.8%. In the case of `CCN(CC)S(=O)(=O)c1ccc(NC(=O)CSc2cccc[n+]2[O-])cc1`, the inhibition is reported as 90.1%. In the case of `CCCCCC1CCC(C(=O)O)CC1` (stereo not given), the inhibition is reported as 51.8%. `CC(=O)c1c(C)oc2c1C(=O)c1ccccc1C2=O` gave an inhibition of 39.7%. In the case of `CCCOC(=O)c1ccc(Oc2cn[nH]c2-c2ccc(OC)cc2O)cc1`, the inhibition is reported as 32.4%. In the case of `Cc1ccc(N=Nc2ccc(O)c3ncccc23)cc1`, the inhibition is reported as 30.3%. With `O=c1c2ccccc2nc2sc3ccccc3n12` the inhibition was 38.4%. `COc1ccc2[nH]c3c(Cl)ncnc3c2c1` showed an inhibition of 35.5%. With `Cc1ccc2nc(-c3ccc(NS(=O)(=O)c4ccc(F)cc4)cc3)sc2c1` the inhibition was 42.9%. In the case of `Cc1cc2c(cc(C(=O)O)n2C)s1`, the inhibition is reported as 34.3%. Compound `Cc1cccc(Cn2ncc(Cl)c(Cl)c2=O)c1` has an inhibition of 31.1%. `CCOc1ccc(NCc2nc3ccccc3n2CCOc2ccccc2)cc1` showed an inhibition of 30.3%. Compound `O=C1CN(CC(=O)N2CCCCC2)c2ccccc2O1` has an inhibition of 37.7%. `COC(=O)c1ccc2c(c1O)C(=O)c1ccccc1C2=O` showed an inhibition of 57.6%. `O=C(CCCSc1ccccc1)Nc1nc(-c2ccccn2)cs1` showed an inhibition of 39%. In the case of `O=[N+]([O-])c1ccc(C2Oc3ccccc3C3CC(c4ccccc4)=NN32)s1` (stereo not given), the inhibition is reported as 45%. With `C=CCSC(=C(C#N)C#N)c1cc2c([nH]1)CCCC2` the inhibition was 32.9%. With `Cc1cc(OCc2ccc(C(=O)NN=C3CCCC3)cc2)ccc1Cl` the inhibition was 54.2%. For `Cc1ccc(C(=O)/C=C/c2cn(CN3CCN(C)CC3)c3ccccc23)cc1`, the inhibition was 34.5%. `Cc1ccc(O)c(C(=O)CC(=O)c2cccc(F)c2)c1` showed an inhibition of 44.8%. Work on `CCc1ccc2c(c1)C1(NN=C(c3cccc4ccccc34)S1)C(=O)N2` (stereo not given) yielded an inhibition of 32.3%. For `O=C(OCn1ncc(Cl)c(Cl)c1=O)c1ccccc1Cl`, the inhibition was 54.5%. Compound `CC(C)N=c1scc(-c2ccco2)n1/N=C/c1ccc(O)c(O)c1` has an inhibition of 36.7%. `O=C(N/N=C1\CC2CC=CC12)c1ccc(COc2ccccc2)cc1` (stereo not given) showed an inhibition of 35.1%. With `O=c1c2cccc3c2c(nn1CN1CCOCC1)-c1ccccc1-3` the inhibition was 47.5%. In the case of `O=C(CN1CCN(c2ncc(C(F)(F)F)cc2Cl)CC1)NCCNc1ncc(C(F)(F)F)cc1Cl`, the inhibition is reported as 38.3%. `CCOc1ccc(/C=C/[N+](=O)[O-])c2ccccc12` gave an inhibition of 33.5%. `Cc1cccc(OCCCOc2cccc3cccnc23)c1C` gave an inhibition of 33.1%. For `Cc1nn(-c2ccccc2)c2sc(-c3n[nH]c(=S)o3)cc12`, the inhibition was 36.1%. With `O=C(NC(Nc1nc2ccc([N+](=O)[O-])cc2s1)(C(F)(F)F)C(F)(F)F)c1ccccc1` the inhibition was 34.1%. Compound `O=c1cccc2n1Cc1cc3ccccc3nc1-2` has an inhibition of 32.4%. `COc1cc(/C=C2/C(=O)ON=C2c2ccccc2)ccc1O` gave an inhibition of 45.6%. For `Clc1ccc2nnnc(-c3ccccc3)c2c1`, the inhibition was 37.5%. Work on `Cc1nn(-c2ccccc2)c2sc(C(=O)O)cc12` yielded an inhibition of 41.3%. For `CCCCn1c(=O)c(C(=O)NCc2ccncc2)c(O)c2ccccc21`, the inhibition was 41.3%. With `OCc1ccc(O)c2ncccc12` the inhibition was 33.1%. In the case of `CCCCc1ccc(NS(=O)(=O)c2cccs2)cc1`, the inhibition is reported as 34.1%. With `Cc1ccc(N2CCOCC2)c2c1C(=O)c1ccccc1C2=O` the inhibition was 32.3%. `Oc1ccccc1NCC(O)Cn1ccc2ccccc21` (stereo not given) showed an inhibition of 30.2%. With `Cc1cc2sc(C(=O)O)c(C)c2s1` the inhibition was 57.7%. In the case of `O=Nc1c2nc3ccccc3n(O)c-2c2ccccc12`, the inhibition is reported as 37.8%. With `c1ccc(-c2ccc(-c3ccccn3)nn2)nc1` the inhibition was 36.1%. Work on `COc1cccc(/C=N/N2C(=O)CSC2=S)c1O` yielded an inhibition of 34.1%. `NNC(=O)c1cccc(COc2ccc(Br)cc2)c1` showed an inhibition of 54.5%. Work on `CC1CCc2c(sc3nc(CN4CCOCC4)nc(Sc4ccccc4)c23)C1` (stereo not given) yielded an inhibition of 33.9%. Work on `O=[N+]([O-])c1ccc(N=Nc2ccc(O)cc2O)cc1` yielded an inhibition of 36.3%. In the case of `c1cc2c(cc1C1CCCCC1)c1c3n2CCCNC3CCC1` (stereo not given), the inhibition is reported as 38.7%. With `COc1ccc(NCc2ccc([N+](=O)[O-])s2)c(OC)c1` the inhibition was 43.9%. For `O=C(O)c1cc2c(ccc3ccccc32)oc1=O`, the inhibition was 38.3%. `O=S(=O)(Nc1ccc(-c2nc3ccccc3o2)cc1)c1ccccc1` showed an inhibition of 30.1%. With `CCOc1cc(CNCCO)cc(Br)c1OCc1ccc(Cl)cc1Cl` the inhibition was 46.1%. Compound `O=C(O)Cc1cc(I)c(Oc2ccc(O)c(I)c2)c(I)c1` has an inhibition of 38.6%. Work on `CN1CCN(Cc2cc(COCc3ccccc3)c3cccnc3c2O)CC1` yielded an inhibition of 51.7%. In the case of `Cc1cc(N2CCN(C(=O)c3ccco3)CC2)n2ncc(-c3ccccc3)c2n1`, the inhibition is reported as 51.7%. For `Cn1c(=O)c2nc(-c3ccccc3)oc2c2ccccc21`, the inhibition was 38.2%. Work on `CCOC(=O)c1cnc(-n2nc(C)cc2C)nc1NNc1cc(C)nc(-c2ccccc2)n1` yielded an inhibition of 48.1%.

Test system: Saccharomyces cerevisiae growth inhibition, permissive control
Assay: as above
Conditions: not given
For `O=[N+]([O-])c1ccc(Cl)c(S(=O)(=O)N2CCCCCC2)c1`, the IC50 was 31.8 µM. Compound `Oc1cccc(C=NCc2ccccc2)c1O` has an IC50 of 10.4 µM. With `CC(=O)Oc1ccc(N2C(=O)C3C(C2=O)C2(C)C=CC3(C)O2)cc1` (stereo not given) the IC50 was > 100 µM (inactive). Work on `CC(C)(Oc1ccc(Cl)cc1)C(=O)NC1=NN(c2ccccc2)C(=O)C1` yielded an IC50 of 21.5 µM. With `Oc1c(CN2CCc3ccccc3C2)cc(Cl)c2cccnc12` the IC50 was 11.5 µM. For `O=C(/C=C/c1ccccc1)c1cc(Br)ccc(=O)c1O`, the IC50 was 12.2 µM. With `COc1ccc(C(=O)/C=C/Nc2ccc(C)cn2)cc1OC` the IC50 was > 100 µM (inactive). Compound `Oc1c(N=Nc2ccccn2)ccc2ccccc12` has an IC50 of 11.5 µM. Work on `CCN(CC)S(=O)(=O)c1ccc(NC(=O)CSc2cccc[n+]2[O-])cc1` yielded an IC50 of 31.6 µM.

Source: PubChem BioAssay AID850 (SRMLSC, 2007)
